pIC50: −log10 of the molar value.

The assay addresses angiotensin II receptor. Nature of the assay: Displacement of 125I- or 3H-angiotensin II from receptor preparations from various organs (liver, lung, adrenal gland, brain etc.). To be noted: Table 1; radioligand displacement, 25° C., 90 min, pH 7.4. It counts as binding. Here is the method: Alternatively, the affinity of the compounds of the formula I for the angiotensin II receptor can be determined by measurement of the ^125 I-angiotensin II or ^3 H-angiotensin II displacement of receptor preparations from various organs (liver, lung, adrenal gland, brain etc.).
To this end, the prepared membranes are suspended in an incubation buffer ([…], pH 7.4, containing 135 mM NaCl, 10 mM KCl, 10 mM MgCl2, 5 mM glucose, 0.2% bovine serum albumin and the protease inhibitors PMSF, 0.3 mM, and bacitracin, 0.1 mM) and incubated at 25° C. for 90 min together with the radioactively labeled angiotensin II and various concentrations of the compounds to be tested. Bound and free radioligand are then separated by filtration through micro glass fiber filters (GF51, Schleicher and Schull) in a cell collector (SKATRON).
The degree of displacement of the radioligand from the receptor by the test compounds is determined by measurement of the receptor-bound radioactivity on the filters by means of a beta- or gamma-spectrometer. The amount of the displacement of the radioligand from the receptor by the test compounds is indicated by the IC50, i.e. the concentration of the inhibitor which displaces 50% of the bound radioligand from the receptor. The calculation of the IC50 values is carried out by means of PC software (LIGAND, G. A. McPherson 1985, Elsevier BIOSOFT, 68 Hills Road, Cambridge, CB2 1LA, UK.).
A word on the pIC50: it is the IC50 on a negative log10 scale, so that one unit is a factor of ten. A high value points to a low IC50. For the compound `CCCCc1nc(SC)c(C(=O)O)n1Cc1ccc(-c2ccccc2S(=O)(=O)NC(=O)OCC=Cc2ccccc2)cc1` [Example 162], the pIC50 was 8.41.

Take `CCCCc1nc(SC)c(C(=O)O)n1Cc1ccc(-c2ccccc2S(=O)(=O)NC(=O)Nc2ccccc2)cc1` [Example 102]: the pIC50 was 8.64.

As to `CCCCc1nc(SC)c(C(=O)OCC)n1Cc1ccc(-c2ccccc2S(=O)(=O)NC(=O)Nc2ccc(F)cc2)cc1` [Example 100], the pIC50 is 7.16.

`CCCCc1nc(SC)c(C(=O)O)n1Cc1ccc(-c2ccccc2S(=O)(=O)NS(=O)(=O)N(C)C)cc1` [Example 179, 1-[1-(2'-dimethylsulfamoylaminosulfonylbiphenyl-4-yl)methyl]-2-n-butyl-4-methylthioimidazole-5-carboxylic acid]: the pIC50 was 8.59.

`CCCCc1nc(SC)c(C(=O)O)n1Cc1ccc(-c2ccccc2S(=O)(=O)NC(=O)NCCN2CCOCC2)cc1` [Example 107] gave a pIC50 of 8.60.

Take `C=CCCOC(=O)NS(=O)(=O)c1ccccc1-c1ccc(Cn2c(CCCC)nc(SC)c2C(=O)O)cc1` [Example 153]: the negative-log IC50 (pIC50) was 9.06.

In turn, `CCCCc1nc(SC)c(C(=O)O)n1Cc1ccc(-c2ccccc2S(=O)(=O)NC(=O)NCc2cccnc2)cc1` [Example 112] showed a pIC50 of 8.82.

`CCCCc1nc(Cl)c(C=O)n1Cc1ccc(-c2ccccc2S(=O)(=O)NC(=O)Nc2ccccc2C)cc1` [Example 36] showed a pIC50 of 7.80.

In the case of `CCCCc1nc(Cl)c(C=O)n1Cc1ccc(-c2cccc(S(=O)(=O)NC(=O)Nc3nnn[nH]3)c2)cc1` [Example 5], the pIC50 was 4.80.

`C=CCCCOC(=O)NS(=O)(=O)c1ccccc1-c1ccc(Cn2c(CCCC)nc(SC)c2C(=O)O)cc1` [Example 167] gave a pIC50 of 8.40.

`CCCCc1nc(SC)c(C(=O)O)n1Cc1ccc(-c2ccccc2S(=O)(=O)NC(=O)NC2CCCCC2)cc1` [Example 59] gave a pIC50 of 8.89.

In turn, `CCCCc1nc(SC)c(C(=O)OCC)n1Cc1ccc(-c2ccccc2S(=O)(=O)NC(=O)NCc2ccc(OC)c(OC)c2)cc1` [Example 92] showed a pIC50 of 6.55.

In the case of `CCCCc1nc(SC)c(C(=O)OCC)n1Cc1ccc(-c2ccccc2S(=O)(=O)NC(=O)NCCC)cc1` [Example 105], the pIC50 was 8.52.

`CCCCc1nc(SC)c(C(=O)OCC)n1Cc1ccc(-c2ccccc2S(=O)(=O)NC(=O)NCc2ccccc2)cc1` [Example 73]: the pIC50 is 8.60.

In turn, `CCCCc1nc(SC)c(C(=O)O)n1Cc1ccc(-c2ccccc2S(=O)(=O)NC(=O)N[C@H](CO)c2ccccc2)cc1` [Example 124] had a pIC50 of 8.74.

Compound `CCCCc1nc(SC)c(C(=O)OCC)n1Cc1ccc(-c2ccccc2S(=O)(=O)NC(=O)N2CCOCC2)cc1` [Example 140] gave a pIC50 of 8.09.

For the compound `C=CCNC(=O)NS(=O)(=O)c1ccccc1-c1ccc(Cn2c(CCCC)nc(SC)c2C(=O)O)cc1` [Example 56, 1-[(2'-allylaminocarbonylaminosulfonylbiphenyl-4-yl)methyl]-2-n-butyl-4-methylthioimidazole-5-carboxylic acid], the pIC50 is 8.34.

Take `CCCCc1nc(SC)c(C(=O)O)n1Cc1ccc(-c2ccccc2S(=O)(=O)NC(=O)NCCc2cccc(C(F)(F)F)c2)cc1` [Example 79]: the pIC50 was 8.24.

As to `CCCCc1nc(Cl)c(C=O)n1Cc1ccc(-c2cccc(S(=O)(=O)NC(=O)Nc3ncccn3)c2)cc1` [Example 4], the pIC50 is 5.96.

As for `CCCCc1nc(SC)c(C(=O)O)n1Cc1ccc(-c2ccccc2S(=O)(=O)NC(=O)NCCc2ccccc2)cc1` [Example 67], the pIC50 was 9.04.

Regarding `CCCCc1nc(Cl)c(C=O)n1Cc1ccc(-c2ccccc2S(=O)(=O)NC(=O)NCCN2CCCCC2)cc1` [Example 30], the pIC50 was 5.69.

The compound `CCCCc1nc(SC)c(C(=O)OCC)n1Cc1ccc(-c2ccccc2S(=O)(=O)NC(=O)OCCOC(C)C)cc1` [Example 156] showed a pIC50 of 8.33.

Consider `CCCCc1nc(Cl)c(C=O)n1Cc1ccc(-c2ccccc2S(=O)(=O)NC(=O)Nc2ccccc2OC)cc1` [Example 33], for which the pIC50 was 7.47.

Compound `CCCCc1nc(Cl)c(C=O)n1Cc1ccc(-c2ccccc2S(=O)(=O)NC(=O)Nc2ccccc2F)cc1` [Example 24] gave a pIC50 of 6.10.

For `C#CCCOC(=O)NS(=O)(=O)c1ccccc1-c1ccc(Cn2c(CCCC)nc(SC)c2C(=O)O)cc1` [Example 154], the pIC50 is 8.74.

`C=CCNC(=O)NS(=O)(=O)c1ccccc1-c1ccc(Cn2c(CCCC)nc(SC)c2C(=O)OCC)cc1` [Example 58] had a pIC50 of 8.52.

As to `CCCCc1nc(SC)c(C(=O)O)n1Cc1ccc(-c2ccccc2S(=O)(=O)NC(=O)NCCC2=CCCCC2)cc1` [Example 62], the pIC50 is 8.44.

`CCCCc1nc(SC)c(C(=O)OCC)n1Cc1ccc(-c2ccccc2S(=O)(=O)NC(=O)N[C@H](C(=O)OC)C(C)C)cc1` [Example 69] showed a pIC50 of 8.49.

Consider `CCCCc1nc(Cl)c(C=O)n1Cc1ccc(-c2ccccc2S(=O)(=O)NC(=O)NCCC)cc1` [Example 2, 1-[(2'-n-propylaminocarbonylaminosulfonylbiphenyl-4-yl)methyl]-2-n-butyl-4-chloroimidazole-5-carboxaldehyde], for which the pIC50 was 5.10.

In the case of `CCCCc1nc(SC)c(C(=O)O)n1Cc1ccc(-c2ccccc2S(=O)(=O)NC(=O)n2cccc2)cc1` [Example 139], the pIC50 was 8.55.

The compound `CCCCc1nc(SC)c(C(=O)OCC)n1Cc1ccc(-c2ccccc2S(=O)(=O)NC(=O)NCCc2ccccn2)cc1` [Example 65] gave a pIC50 of 8.74.

Take `CCCCc1nc(Cl)c(C=O)n1Cc1ccc(-c2ccccc2S(=O)(=O)NC(=O)NCc2ccc(OC)cc2)cc1` [Example 34]: the pIC50 is 9.00.

In the case of `CCCCc1nc(OC)c(C=O)n1Cc1ccc(-c2ccccc2S(=O)(=O)NC(=O)OCc2ccccc2)cc1` [Example 186, 1-{[(2'-Benzyloxycarbonylaminosulfonyl)biphenyl-4-]methyl}-2-n-butyl-4-methoxyimidazole-5-carbaldehyde], the pIC50 was 8.19.

For the compound `CCCCc1nc(SC)c(C(=O)O)n1Cc1ccc(-c2ccccc2S(=O)(=O)NC(=O)OCc2cccs2)cc1` [Example 164], the pIC50 is 9.07.

The compound `C=C[C@H](Cc1ccccc1)NC(=O)NS(=O)(=O)c1ccccc1-c1ccc(Cn2c(CCCC)nc(SC)c2C(=O)O)cc1` [Example 127] gave a negative-log IC50 (pIC50) of 8.52.

Compound `CCCCc1nc(Cl)c(C=O)n1Cc1ccc(-c2ccccc2S(=O)(=O)NC(=O)NC2CN3CCC2CC3)cc1` (stereo not drawn) [Example 31] gave a negative-log IC50 (pIC50) of 6.82.

The compound `CCCCc1nc(SC)c(C(=O)O)n1Cc1ccc(-c2ccccc2S(=O)(=O)NC(=O)OCC2CC=CCC2)cc1` (stereo not drawn) [Example 168] showed a pIC50 of 8.15.

On to `CCCCc1nc(SC)c(C(=O)OCC)n1Cc1ccc(-c2ccccc2S(=O)(=O)NC(=O)N2CCC(NC(=O)OC(C)(C)C)CC2)cc1` [Example 146], for which the pIC50 was 7.40.

As to `CCCCc1nc(SC)c(C(=O)O)n1Cc1ccc(-c2ccccc2S(=O)(=O)NC(=O)N[C@@H](Cc2ccccc2)C(=O)O)cc1` [Example 98], the pIC50 was 8.85.

Turning to `CC#CCOC(=O)NS(=O)(=O)c1ccccc1-c1ccc(Cn2c(CCCC)nc(SC)c2C(=O)O)cc1` [Example 169], the pIC50 was 8.54.

Compound `CCCCc1nc(SC)c(C(=O)O)n1Cc1ccc(-c2ccccc2S(=O)(=O)NS(=O)(=O)c2cccs2)cc1` [Example 190, 1-[(2'-{2-Thienylsulfonylaminosulfonyl}biphenyl-4-yl)methyl]-2-n-butyl-4-methylthioimidazole-5-carboxylic acid] had a pIC50 of 7.66.

For `CCCCc1nc(SC)c(C(=O)O)n1Cc1ccc(-c2ccccc2S(=O)(=O)NC(=O)NCc2ccc(OC)cc2)cc1` [Example 90], the pIC50 is 9.16.

`CCCCc1nc(SC)c(C(=O)OCC)n1Cc1ccc(-c2ccccc2S(=O)(=O)NC(=O)OCC=Cc2ccccc2)cc1` [Example 161] had a pIC50 of 7.24.

As to `CCCCc1nc(SC)c(C(=O)OCC)n1Cc1ccc(-c2ccccc2S(=O)(=O)NS(=O)(=O)c2cccs2)cc1` [Example 194], the pIC50 was 7.66.

Regarding `CCCCc1nc(SC)c(C(=O)OCC)n1Cc1ccc(-c2ccccc2S(=O)(=O)NC(=O)NCCCc2ccccc2)cc1` [Example 76], the negative-log IC50 (pIC50) is 8.02.

`CCCCc1nc(SC)c(C(=O)O)n1Cc1ccc(-c2ccccc2S(=O)(=O)NC(=O)NCc2ccccc2OC)cc1` [Example 83] had a pIC50 of 9.02.

`CCCCc1nc(SC)c(C(=O)O)n1Cc1ccc(-c2ccccc2S(=O)(=O)NC(=O)OCCOCc2ccccc2)cc1` [Example 172] gave a pIC50 of 9.32.

In turn, `CCCCc1nc(Cl)c(C=O)n1Cc1ccc(-c2ccccc2S(=O)(=O)NC(=O)NCCc2ccccc2)cc1` [Example 37] showed a negative logarithm of the IC50 (pIC50) of 8.96.

Compound `CCCCc1nc(SC)c(C(=O)OCC)n1Cc1ccc(-c2ccccc2S(=O)(=O)NC(=O)Nc2ccccc2)cc1` [Example 99] showed a pIC50 of 7.58.

As to `CCCCc1nc(OC)c(C=O)n1Cc1ccc(-c2ccccc2S(=O)(=O)NC(=O)OCC)cc1` [Example 185, 1-{[(2'-Ethoxycarbonylaminosulfonyl)biphenyl-4-yl]-methyl}-2-n-butyl-4-methoxyimidazole-5-carbaldehyde], the pIC50 is 8.23.

Compound `CCCCc1nc(SC)c(C(=O)OCC)n1Cc1ccc(-c2ccccc2S(=O)(=O)NC(=O)OCc2cccs2)cc1` [Example 163] showed a pIC50 of 8.43.

These data come from patent US5482957A, “Azole derivatives, process for their preparation and their use” (Hoechst Aktiengesellschaft, priority 1991, dated 1996).
